Results on 6 molecules are retold here after patent publication US20250188092A1, “RIFAMYCIN ANALOGS” (THE REGENTS OF THE UNIVERSITY OF MICHIGAN, priority 2021, published 2025).

In one assay the target is β-S450L (RIF^R) MTB RNAP (Mycobacterium tuberculosis, UniProt P9WGY9, S456L). The following applies: read-out: RNAP IC50 MTB S450L.
Assay [1] deals with M. tuberculosis transformed with luxABCDE. Kind of assay: microbe, parasite or virus in culture. It is filed as cell-based, Mycobacterium tuberculosis.
The subject of assay [2] is non-replicating cultures of M. tuberculosis H37Rv transformed with lux ABCDE. Kind of assay: microbe, parasite or virus in culture. The following applies: for MIC90 / MIC: ≥90% reduction in luminescence, read-out: MIC90 LORA; for MIC90 LORA/MABA: ratio of LORA MIC90 to MABA MIC90. The class given is cell-based, Mycobacterium tuberculosis. In general terms: Alamar Blue is a resazurin reagent that responds to reducing activity.

The mark [3] stands for this setting: […], ≥99% reduction in luminescence, read-out: MBC99 Day 7 (Lux Assay) MBC.
Where [4] appears, read: Mycobacterium tuberculosis, H37RV.
The mark [5] stands for this setting: Mycobacterium tuberculosis, 168 h, […], ≥99% reduction in luminescence, read-out: MBC99 Day 7 (Lux Assay) MBC.

Converted amounts (≈) assume the structure as drawn. Like-named read-outs stand apart in the source and are kept apart here.

One may read the IC50 as the concentration at which inhibition is half-maximal. With `CO[C@H]1/C=C/O[C@@]2(C)Oc3c(C)c(O)c4c(=O)c(c5oc6cc(N7CCC(CC(=O)O)CC7)cc(N7CCC(CC(=O)O)CC7)c6nc-5c4c3C2=O)NC(=O)/C(C)=C\C=C\[C@H](C)[C@H](O)[C@@H](C)[C@@H](O)[C@@H](C)[C@H](OC(C)=O)[C@@H]1C` [Compound 17v, 2-{1-[(7S,9E,11S,12R,13S,14R,15R,16R,17S,18S,19E,21Z)-13-(acetyloxy)-32-[4-(carboxymethyl)piperidin-1-yl]-2,15,17-trihydroxy-11-methoxy-3,7,12,14,16,18,22-heptamethyl-6,23,37-trioxo-8,27,38-trioxa-24,34-diazahexacyclo-[23.11.1.1^4,7.0^5,36.0^26,35.0^28,33]octatriaconta-1,3,5(36)9,19,21,25,28,30,32,34-undecaen-30-yl]piperidin-4-yl)acetic acid], at β-S450L (RIF^R) MTB RNAP, the IC50 turned out to be 66 µM. Moreover, the MBC in assay [1] (setting [3]) is over 0.1 µM.
Regarding `CO[C@H]1/C=C/O[C@@]2(C)Oc3c(C)c(O)c4c(=O)c(c5oc6cc(N7CCC(CC(=O)O)CC7)cc(OCc7ccc(CN8CCOCC8)cc7)c6nc-5c4c3C2=O)NC(=O)/C(C)=C\C=C\[C@H](C)[C@H](O)[C@@H](C)[C@@H](O)[C@@H](C)[C@H](OC(C)=O)[C@@H]1C` [Compound 17l, 2-{1-[(7S,9E,11S,12R,13S,14R,15R,16R,17S,18S,19E,21Z)-13-(acetyloxy)-2,15,17-trihydroxy-11-methoxy-3,7,12,14,16,18,22-heptamethyl-32-{[4-(morpholin-4-ylmethyl)phenyl]methoxy}-6,23,37-trioxo-8,27,38-trioxa-24,34-diazahexacyclo-[23.11.1.1^4,7.0^5,36.0^26,35.0^28,33]octatriaconta-1,3,5(36)9,19,21,25,28,30,32,34-undecaen-30-yl]piperidin-4-yl)acetic acid], the IC50 on β-S450L (RIF^R) MTB RNAP was 22 µM. For the same molecule, in assay [2], the “MIC90 LORA Rel to RMP” value was 31, the MIC90 turned out to be 0.843 µM (≈ 0.954 µg/mL) and the “MIC90 LORA/MABA” value came out at 4.5. Besides, in assay [1] (setting [3]), the MBC was over 0.1 µM.
Take `CO[C@H]1/C=C/O[C@@]2(C)Oc3c(C)c(O)c4c(=O)c(c5oc6cc(N7CCN(C(=O)c8cccc(-c9ccccn9)c8)CC7)cc(OCc7ccc(CN8CCOCC8)cc7)c6nc-5c4c3C2=O)NC(=O)/C(C)=C\C=C\[C@H](C)[C@H](O)[C@@H](C)[C@@H](O)[C@@H](C)[C@H](OC(C)=O)[C@@H]1C` [Compound 17r, (7S,9E,11S,12R,13S,14R,15R,16R,17S,18S,19E,21Z)-2,15,17-trihydroxy-11-methoxy-3,7,12,14,16,18,22-heptamethyl-32-{[4-(morpholin-4-ylmethyl)phenyl]methoxy}-6,23,37-trioxo-30-(4-{[3-(pyridin-2-yl)phenyl]carbonyl}piperazin-1-yl)-8,27,38-trioxa-24,34-diazahexacyclo[23.11.1.1^4,7.0^5,36.0^26,35.0^28,33]octatriaconta-1,3,5(36)9,19,21,25,28,30,32,34-undecaen-13-yl acetate]: at β-S450L (RIF^R) MTB RNAP, the IC50 was found to be 77 µM. For the same molecule, in assay [2], the “MIC90 LORA Rel to RMP” value turned out to be 2.60, the MIC90 was found to be 0.13 µM and the “MIC90 LORA/MABA” value is 5.7. Besides, the “MBC99 Day 7 (Lux Assay) MBC Rel to RMP” value in assay [1] turned out to be 0.46. In addition, the MBC in assay [1] (setting [3]) was 0.205 µM.
On to `CO[C@H]1/C=C/O[C@@]2(C)Oc3c(C)c(O)c4c(=O)c(c5oc6cc(N7CCN(C(=O)OC(C)(C)C)CC7)cc(C)c6nc-5c4c3C2=O)NC(=O)/C(C)=C\C=C\[C@H](C)[C@H](O)[C@@H](C)[C@@H](O)[C@@H](C)[C@H](OC(C)=O)[C@@H]1C` [Compound 26i, tert-Butyl 4-[(7S,9E,11S,12R,13S,14R,15R,16R,17S,18S,19E,21Z)-13-(acetyloxy)-2,15,17-trihydroxy-11-methoxy-3,7,12,14,16,18,22,32-octamethyl-6,23,37-trioxo-8,27,38-trioxa-24,34-diazahexacyclo[23.11.1.1^4,7.0^5,36.0^26,35.0^28,33]octatriaconta-1(36)2,4,9,19,21,25,28,30,32,34-undecaen-30-yl]piperazine-1-carboxylate], for which, in assay [2], the “MIC90 LORA Rel to RMP” value was 0.05 and the “MIC90 LORA/MABA” value is listed as 2.0. For the same molecule, in assay [2] (setting [4]), the MIC90 was found to be 0.0093 µM (≈ 0.00914 µg/mL). In assay [1], the “MBC99 Day 7 (Lux Assay) MBC Rel to RMP” value turned out to be 0.10. For the same molecule, in assay [1] (setting [5]), the MBC was determined as 0.047 µM (≈ 0.0462 µg/mL).
Regarding `CO[C@H]1/C=C/O[C@@]2(C)Oc3c(C)c(O)c4c(=O)c(c5oc6cc(N7CCN(CC(C)C)CC7)cc(OCc7ccc(CN8CCOCC8)cc7)c6nc-5c4c3C2=O)NC(=O)/C(C)=C\C=C\[C@H](C)[C@H](O)[C@@H](C)[C@@H](O)[C@@H](C)[C@H](OC(C)=O)[C@@H]1C` [Compound 17e, (7S,9E,11S,12R,13S,14R,15R,16R,17S,18S,19E,21Z)-2,15,17-Trihydroxy-11-methoxy-3,7,12,14,16,18,22-heptamethyl-30-[4-(2-methylpropyl)piperazin-1-yl]-32-({4-[(morpholin-4-yl)methyl]phenyl}methoxy)-6,23,37-trioxo-8,27,38-trioxa-24,34-diazahexacyclo[23.11.1.1^4,7.0^5,36.0^26,35.0^28,33]octatriaconta-1(36)2,4,9,19,21,25,28,30,32,34-undecaen-13-yl acetate], in assay [2], the “MIC90 LORA Rel to RMP” value came out at 0.11 and the “MIC90 LORA/MABA” value was determined as 1.9. The MIC in assay [2] (setting [4]) turned out to be 0.0094 µM. The “MBC99 Day 7 (Lux Assay) MBC Rel to RMP” value in assay [1] came to 0.20. For the same molecule, the MBC in assay [1] (setting [5]) is 0.093 µM. The molecule also displayed an MIC90 in assay [1] (Mycobacterium tuberculosis, 168 h, day 7 of time-kill study) of 0.009 µM. For the same molecule, the MBC in assay [1] (Mycobacterium tuberculosis, 168 h, day 7 of time-kill study, read-out: MBC99) is 0.093 µM. Besides, the “more potent than RMP in terms of day 7 MBC” value in assay [1] (day 7) was “approximately 10 fold”.
Take `CO[C@H]1/C=C/O[C@@]2(C)Oc3c(C)c(O)c4c(=O)c(c5oc6cc(N7CCN(CC(C)C)CC7)cc(OCc7cccc(CN8CCN(C(=O)Cn9ccnc9)CC8)c7)c6nc-5c4c3C2=O)NC(=O)/C(C)=C\C=C\[C@H](C)[C@H](O)[C@@H](C)[C@@H](O)[C@@H](C)[C@H](OC(C)=O)[C@@H]1C` [Compound 12c, (7S,9E,11S,12R,13S,14R,15R,16R,17S,18S,19E,21Z)-2,15,17-Trihydroxy-32-{[3-({4-[2-(1H-imidazol-1-yl)acetyl]piperazin-1-yl}methyl)phenyl]methoxy}-11-methoxy-3,7,12,14,16,18,22-heptamethyl-30-[4-(2-methylpropyl)piperazin-1-yl]-6,23,37-trioxo-8,27,38-trioxa-24,34-diazahexacyclo[23.11.1.1^4,7.0^5,36.0^26,35.0^28,33]octatriaconta-1(36)2,4,9,19,21,25,28,30,32,34-undecaen-13-yl acetate]: in assay [2], the “MIC90 LORA Rel to RMP” value was 0.11. Moreover, in assay [2] (setting [4]), the MIC was under 0.016 µM. Also, the “MBC99 Day 7 (Lux Assay) MBC Rel to RMP” value in assay [1] is recorded as 0.08. Further, the MBC in assay [1] (setting [5]) stood at 0.037 µM.
